Test results: patent US20150087604A1, “ANTI-FATTY ACID SYNTHASE POLYPEPTIDE AND USE THEREOF” (TIANJIN TOPTECH BIO-SCIENCE & TECHNOLOGY CO., LTD., priority 2011, published 2015)
Entries after “also recorded” stand apart in the source; their conditions may differ.

Legend:
[1] = test system: NF-κB promoter; test: Dual-luciferase reporter gene analysis, NF-κB promoter; format: cell-based; details: HepG2 cells; synthesized polypeptide 0.1 μM, 1 μM, 10 μM and 100 μM; 24 hr incubation
Source text: (§1) Hepatoma cell line HepG2 was adopted in the experiment. Because SREBP-1c is upstream transcription regulatory factor of FAS, whether there is inhibition of SREBP-1c promoter activity at the molecular level can be used to reflect the transcription state of FAS gene by reporter gene assays. Meanwhile, the detection of FAS promoter activity can directly reflect whether the transcription of FAS is inhibited or not. The nuclear factor κB (nuclear factor KB, NF-κB) is an import transcription factor, and increasing of NF-κB promoter activity indicates the increase of cell proliferation. Therefore, it can test the effects of the invention polypeptides on the proliferation of HepG2 cell by detection of NF-κB promoter activity and (3-(4,5-dimethylthiazol-2-yl)-2,5-diphenyltetrazolium bromide (MTT). […]
(7) Immediately put the EP tubes into a Luminometer (manufactured by Turner Biosystems). Within 10 sec after 2 sec balance, measured the luminescence.
(8) Added 100 μl fluorescence bleacher. […]
(9) Measured the luminescence within 10 sec.
The relative activity was the ratio of the value of the first luminescence to the value of the second luminescence.
Results shown are representative of three independent experiments according to Mean±SD, and statistical significance was calculated using Student's t test.

[2] = test system: HepG2 cells; test: MTT assay of cell proliferation of hepatoma cells; format: cell-based; details: synthesized polypeptide 0.1 μM, 1 μM, 10 μM and 100 μM, 48 hr
Source text: as §1, with “proliferation.” for “proliferation. Therefore, it can test the effects of the invention polypeptides on the proliferation of HepG2 cell by detection of NF-κB promoter activity and (3-(4,5-dimethylthiazol-2-yl)-2,5-diphenyltetrazolium bromide (MTT).”
(2) Culture the cells: Within 12 hr for adhesion of cultured cells, different amount of polypeptides plasmids from Step A (0.25 μg, 0.5 μg and 0.75 μg) or different concentrations of synthesized polypeptides from Example 1 (0.1 μM, 1 μM, 10 μM and 100 μM) were transfected with 8 wells for each concentration, and were incubated for 48 hr in the same condition. 0.3 μg pEGFP-C2 plasmids and 1 μg p-Anti-HBxP1# were cotransfected, and using a fluorescence microscope to check for cells containing the GFP plasmid after 24 hr to make sure the percentage of cells that contain GFP is over 70%; […]
(5) Comparison: Read in an ELISA reader at 490 nm to measure the absorbance for each well. Results were calculated by using Student's t-test.

[3] = test system: HepG2 cells; test: Inoculation experiment in nude mice (HepG2 tumor growth); format: in vivo; details: 10 mg/kg, once in two day, total 10 times
Procedure: (§2) Suspended the HepG2 cells at exponential phase by treating with trypsin, and counted the number of cells to dilute to 1×10^7 cells/ml with physiological saline, and then store in the ice water. 12 Mice used were 4- to 6-week-old BALB/C females, and were randomly divided into two groups: (1) Control group, injected 0.2 ml diluted cells to the armpit of left forelimb for each mouse, and only injected 0.5 ml ddH2O (without polypeptide drugs); (2) experimental group (the treatment dose was 10 mg/kg), injected 0.2 ml diluted cells to the armpit of left forelimb for each mouse, and within 7 days after the injection, tumor volume (V=L×W^2×0.5) reached to 100 mm^3. And then, injected the above mentioned polypeptide drugs (dried polypeptide drug solved in 0.5 ml ddH2O) once in two day, total 10 times, and recorded the tumor volume before injection. Within 24 hr after the last dose, weighted the mice, and killed the mice to weight the tumor tissue, anti-tumor rate was calculated as follow: […]

[4] = Weight of nude mice in the inoculation experiment; format: in vivo
Procedure: as §2

[5] = Polypeptide drugs acute toxicity test; format: in vivo, Kunming white mice; details: 1 g/kg tail intravenous injection; observed 24 hr
Procedure: Control group and experimental group contained 10 Kunming white mice, with 5 females and 5 males, respectively. Experimental group injected Anti-FAS-P18 with the concentration of 1 g/kg (2.5 mg dried polypeptide drug solved in 0.125 ml ddH2O) by tail intravenous injection; control group, injected 0.25 ml ddH2O. Consecutively observed the mice for 24 hr after injection.

With “Gly-Gly-Cys-Arg-His-Lys-Leu-Val-Cys-Ala-Pro-Ala-Pro-Cys-Asn-Phe-Phe-Thr [Anti-FAS-P18]” the “activity of NF-κB promoter” value [1] was “inhibits the activity of NF-κB promoter in HepG2 cells in a dose-dependent manner”, the “cell proliferation (MTT)” value [2] was “inhibits cell proliferation in the HepG2 cells in a dose-dependent manner” and the “growth and proliferation of HepG2 cells in nude mice” value [3] was “inhibits the growth and proliferation in the HepG2 cells; also recorded: inhibits the growth and proliferation of the HepG2 cells”. For the same substance, the “Anti-tumor rate (%)” value ([3]; from tumor weight vs control) was 43.06%, the “Tumor Weight (X ± S, g)” value ([3]; within 24 hr after the last dose) was 0.42 ± 0.09 g and the “impact on the weight of nude mice” value ([4]; 10 mg/kg, once in two day, total 10 times) was “no significantly impact on the weight of nude mice”. The “Weight (X ± S, g) After dose” value ([4]; body weight of mice after dose, 10 mg/kg, once in two day, total 10 times) was 21.83 ± 0.82 g, the “Weight (X ± S, g) Before dose” value ([4]; body weight of mice before dose, experimental group 10 mg/kg) was 15.33 ± 0.75 g and the “abnormal behaviors after injection” value [5] was “do not have abnormal behaviors”. For the same substance, the “changes in weight compared with control group” value [5] was “no abnormal changes in weight compared with control group”.
